Laboratory results taken from ChEMBL document CHEMBL1154562, “Malevamides A-C, new depsipeptides from the marine cyanobacterium Symploca laete-viridis” (J Nat Prod, 2000).
Activity calls are given as the source filed them.

Tests used:
Assay type in all cases: functional, cell-based
P388 = test: Cytotoxicity against mouse P388 cells at 2 ug/mL
A549 = test: Cytotoxicity against human A549 cells at 2 ug/mL
HT-29 = test: Cytotoxicity against human HT29 cells at 2 ug/mL

Measured: Activity

CCCCC(C)C(=O)N1CCC[C@H]1C(=O)N(C)C(Cc1ccccc1)C(=O)NCC(=O)N(C)[C@@H](C(=O)N[C@H](C(=O)NCC(=O)N(C)C(Cc1ccccc1)C(=O)N1CCC[C@@H]1C(=O)OC)[C@@H](C)CC)C(C)C (some centres undefined)
inactive: all assays above

C#CCCCC1NC(=O)[C@H]([C@@H](C)CC)N(C)C(=O)[C@@H]2CCCN2C(=O)[C@@H]2CCCN2C(=O)[C@H](CC(C)C)NC(=O)[C@H](C(C)C)N(C)C(=O)[C@H](C)NC(=O)[C@@H](C)N(C)C(=O)[C@H](Cc2ccccc2)N(C)C(=O)[C@H](COC)N(C)C(=O)[C@H](C(C)C)N(C)C(=O)[C@@H]2CCCN2C(=O)[C@H](C)NC(=O)[C@H](C(C)C)OC(=O)C1C (some centres undefined)
inactive: all assays above

CCCC1NC(=O)[C@H](Cc2ccccc2)N(C)C(=O)[C@@H]2CCCN2C(=O)C(C(C)C)N(C)C(=O)[C@@H]2CCCN2C(=O)[C@H]([C@@H](C)CC)NC(=O)C(C(C)C)N(C)C(=O)[C@@H]2CCCN2C(=O)C(C(C)C)N(C)C(=O)C(C(C)C)N(C)C(=O)[C@H](C(C)C)NC(=O)[C@H](C)N(C)C(=O)[C@@H](C(C)C)OC(=O)C1C (some centres undefined)
inactive: all assays above
